Our source for the IC50 values is patent publication US12187701B2, “Taire family kinase inhibitors and uses thereof” (Dana-Farber Cancer Institute, Inc., priority 2018, dated 2025).

The target in one experiment is Cdk14/CycY (Homo sapiens (Human), UniProt O94921). The experiment is described as follows: Lanthascreen Eu kinase binding assay for Cdk14/CycY with 30 minute pre-incubation. The conditions noted are these: 30 minute pre-incubation of kinase with compound; read-out: IC50 CDK14 binding by Lanthascreen. As for the experimental part: Lanthascreen Eu kinase binding assays were conducted for Cdk14/CycY largely as performed in the commercial assay service by Life Technologies, but included a 30 minute pre-incubation step of the kinase with candidate compounds to facilitate covalent bond formation.
In general terms: Time-resolved FRET reads energy transfer from a long-lived donor to a nearby acceptor.

The next experiment deals with HCT116 cells. The experiment can be described thus: Antiproliferation assay, Cell Titer Glo, 72 hours. The experiment is classed as cell-based. To be noted: Homo sapiens, HCT-116, 72 h. As for the experimental part: HCT116 cells were plated in 384-well plates at 750 cells/well in 50 ul fresh media (McCoy's 5A+10% FBS+1% Penn/Strep) and treated with 0.1 μl candidate compounds in four-fold dilution series using the Janus pinner. Cells were incubated with compounds for 72 hours in 37° C. 5% CO2. Anti-proliferative effects of these compounds were assessed 72 hours after compound addition using Cell Titer Glo (Promega cat #G7571) as described in product manual by luminescence measurements using an Envision platereader. All proliferation assays were performed in biological quadruplicate. IC50 values were determined using a non-linear regression curve fit in GraphPad Prism 6.

SMILES strings stand for the structures.

As a reminder, the IC50 is the concentration that inhibits the measured activity by half.

Sequence of Cdk14/CycY (O94921 whole entry): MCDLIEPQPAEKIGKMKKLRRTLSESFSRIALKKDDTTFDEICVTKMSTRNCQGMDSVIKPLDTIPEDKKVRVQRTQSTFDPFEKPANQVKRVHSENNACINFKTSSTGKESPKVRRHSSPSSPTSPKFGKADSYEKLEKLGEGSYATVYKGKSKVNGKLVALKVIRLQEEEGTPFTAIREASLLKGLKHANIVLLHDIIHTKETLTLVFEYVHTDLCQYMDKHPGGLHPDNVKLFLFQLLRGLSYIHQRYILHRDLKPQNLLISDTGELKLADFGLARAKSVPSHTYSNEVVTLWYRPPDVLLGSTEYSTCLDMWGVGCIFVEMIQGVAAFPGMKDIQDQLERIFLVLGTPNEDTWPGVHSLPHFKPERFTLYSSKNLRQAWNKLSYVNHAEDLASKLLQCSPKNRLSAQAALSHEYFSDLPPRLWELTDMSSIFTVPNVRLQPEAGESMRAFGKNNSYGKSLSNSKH
Sequence of Cdk14/CycY (Q8ND76 whole entry partner): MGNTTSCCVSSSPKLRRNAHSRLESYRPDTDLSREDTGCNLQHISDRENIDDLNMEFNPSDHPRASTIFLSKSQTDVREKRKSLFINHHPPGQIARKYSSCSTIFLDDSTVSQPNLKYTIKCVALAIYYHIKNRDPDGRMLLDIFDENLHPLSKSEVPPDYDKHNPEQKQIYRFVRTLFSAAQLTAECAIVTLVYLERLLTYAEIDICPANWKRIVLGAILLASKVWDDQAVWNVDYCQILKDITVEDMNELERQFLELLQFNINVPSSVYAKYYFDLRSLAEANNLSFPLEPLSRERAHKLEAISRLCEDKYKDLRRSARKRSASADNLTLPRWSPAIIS

For the compound `C=CC(=O)Nc1ccc(S(=O)(=O)N2CCC(NC(=O)c3n[nH]cc3NC(=O)c3c(Cl)cccc3Cl)CC2)cc1` [FMF-03-197-1, N-(1-((4-acrylamidophenyl)sulfonyl)piperidin-4-yl)-4-(2,6-dichlorobenzamido)-1H-pyrazole-3-carboxamide], the figures for the IC50 at Cdk14/CycY and with HCT116 cells were 62 nM and 31 nM, respectively.
In the same order, the values of `C=CC(=O)Nc1ccc(CN2CCC(NC(=O)c3n[nH]cc3NC(=O)c3c(Cl)cccc3Cl)CC2)cc1` [FMF-03-199-1, N-(1-(4-acrylamidobenzyl)piperidin-4-yl)-4-(2,6-dichlorobenzamido)-1H-pyrazole-3-carboxamide] are 10 nM and < 0.1 nM.
The corresponding values for `C=CC(=O)Nc1ccc(C(=O)Nc2cccc(NC(=O)c3n[nH]cc3NC(=O)c3c(Cl)cccc3Cl)c2)cc1` [FMF-03-203-1, N-(3-(4-acrylamidobenzamido)phenyl)-4-(2,6-dichlorobenzamido)-1H-pyrazole-3-carboxamide] are 609 nM and 6 nM.
In the same order, the values of `CN(C)C/C=C/C(=O)Nc1ccc(C(=O)Nc2cccc(NC(=O)c3n[nH]cc3NC(=O)c3c(Cl)cccc3Cl)c2)cc1` [FMF-03-204-1, (E)-4-(2,6-dichlorobenzamido)-N-(3-(4-(4-(dimethylamino)but-2-enamido)benzamido)phenyl)-1H-pyrazole-3-carboxamide] are 72 nM and 24 nM.
Regarding `C=CC(=O)Nc1cccc(C(=O)Nc2cccc(NC(=O)c3n[nH]cc3NC(=O)c3c(Cl)cccc3Cl)c2)c1` [FMF-04-011-1, N-(3-(3-acrylamidobenzamido)phenyl)-4-(2,6-dichlorobenzamido)-1H-pyrazole-3-carboxamide], the IC50 at Cdk14/CycY was found to be 308 nM; in the experiment on HCT116 cells, 31 nM.
In the same order, the values of `C=CC(=O)Nc1ccc(C(=O)Nc2ccc(NC(=O)c3n[nH]cc3NC(=O)c3c(Cl)cccc3Cl)cc2)cc1` [FMF-04-012-1] are 169 nM and 8 nM.
On to `C=CC(=O)Nc1ccc(S(=O)(=O)N2CCC[C@@H](NC(=O)c3n[nH]cc3NC(=O)c3c(Cl)cccc3Cl)C2)cc1` [FMF-04-056-1, (R)—N-(1-((4-acrylamidophenyl)sulfonyl)piperidin-3-yl)-4-(2,6-dichlorobenzamido)-1H-pyrazole-3-carboxamide], for which the IC50 on Cdk14/CycY was > 1000 nM; in the experiment on HCT116 cells, > 10000 nM.
In the same order, the values of `C=CC(=O)Nc1cccc(S(=O)(=O)N2CCC[C@@H](NC(=O)c3n[nH]cc3NC(=O)c3c(Cl)cccc3Cl)C2)c1` [FMF-04-057-1, (R)—N-(1-((3-acrylamidophenyl)sulfonyl)piperidin-3-yl)-4-(2,6-dichlorobenzamido)-1H-pyrazole-3-carboxamide] are 836 nM and > 10000 nM.
Regarding `CN(C)C/C=C/C(=O)Nc1cccc(S(=O)(=O)N2CCC[C@@H](NC(=O)c3n[nH]cc3NC(=O)c3c(Cl)cccc3Cl)C2)c1` [FMF-04-057-2, (R,E)-4-(2,6-dichlorobenzamido)-N-(1-((3-(4-(dimethylamino)but-2-enamido)phenyl)sulfonyl)piperidin-3-yl)-1H-pyrazole-3-carboxamide], the IC50 at Cdk14/CycY is > 1000 nM; in the experiment on HCT116 cells, 9840 nM.
The corresponding values for `C=CC(=O)Nc1ccc(C(=O)N2CCC[C@@H](NC(=O)c3n[nH]cc3NC(=O)c3c(Cl)cccc3Cl)C2)cc1` [FMF-04-058-1, (R)—N-(1-(4-acrylamidobenzoyl)piperidin-3-yl)-4-(2,6-dichlorobenzamido)-1H-pyrazole-3-carboxamide] are > 1000 nM and > 10000 nM.
In the same order, the values of `CN(C)C/C=C/C(=O)Nc1ccc(C(=O)N2CCC[C@@H](NC(=O)c3n[nH]cc3NC(=O)c3c(Cl)cccc3Cl)C2)cc1` [FMF-04-058-2, (R,E)-4-(2,6-dichlorobenzamido)-N-(1-(4-(4-(dimethylamino)but-2-enamido)benzoyl)piperidin-3-yl)-1H-pyrazole-3-carboxamide] are > 1000 nM and 726 nM.
The corresponding values for `C=CC(=O)Nc1cccc(C(=O)N2CCC[C@@H](NC(=O)c3n[nH]cc3NC(=O)c3c(Cl)cccc3Cl)C2)c1` [FMF-04-059-1, (R)—N-(1-(3-acrylamidobenzoyl)piperidin-3-yl)-4-(2,6-dichlorobenzamido)-1H-pyrazole-3-carboxamide] are > 1000 nM and 4040 nM.
In the case of `CN(C)C/C=C/C(=O)Nc1cccc(C(=O)N2CCC[C@@H](NC(=O)c3n[nH]cc3NC(=O)c3c(Cl)cccc3Cl)C2)c1` [FMF-04-059-2, (R,E)-4-(2,6-dichlorobenzamido)-N-(1-(3-(4-(dimethylamino)but-2-enamido)benzoyl)piperidin-3-yl)-1H-pyrazole-3-carboxamide], the figures for the IC50 at Cdk14/CycY and in the experiment on HCT116 cells were > 1000 nM and > 10000 nM, respectively.
As to `Cc1cc(NC(=O)c2cccc(NC(=O)/C=C/CN(C)C)c2)ccc1NC(=O)c1n[nH]cc1NC(=O)c1c(Cl)cccc1Cl` [FMF-04-085-2, (E)-4-(2,6-dichlorobenzamido)-N-(4-(3-(4-(dimethylamino)but-2-enamido)benzamido)-2-methylphenyl)-1H-pyrazole-3-carboxamide], the IC50 turned out to be 1160 nM at Cdk14/CycY and 320 nM in the experiment on HCT116 cells.
In the same order, the values of `C=CC(=O)Nc1cccc(S(=O)(=O)N2CCC(N(C)C(=O)c3n[nH]cc3NC(=O)c3c(Cl)cccc3Cl)CC2)c1` [FMF-04-086-1, N-(1-((3-acrylamidophenyl)sulfonyl)piperidin-4-yl)-4-(2,6-dichlorobenzamido)-N-methyl-1H-pyrazole-3-carboxamide] are > 1000 nM and > 10000 nM.
In the same order, the values of `C=CC(=O)Nc1cccc(S(=O)(=O)N2CCC(NC(=O)c3nscc3NC(=O)c3c(Cl)cccc3Cl)CC2)c1` [FMF-04-089-1, N-(1-((3-acrylamidophenyl)sulfonyl)piperidin-4-yl)-4-(2,6-dichlorobenzamido)isothiazole-3-carboxamide] are > 1000 nM and 563 nM.
The corresponding values for `C=CC(=O)Nc1cccc(S(=O)(=O)N2CCC(NC(=O)c3c(NC(=O)c4c(Cl)cccc4Cl)cnn3C)CC2)c1` [FMF-04-120-1, N-(1-((3-acrylamidophenyl)sulfonyl)piperidin-4-yl)-4-(2,6-dichlorobenzamido)-1-methyl-1H-pyrazole-5-carboxamide] are > 1000 nM and 2420 nM.
With `C=CC(=O)Nc1cccc(CN2CCC(NC(=O)c3n[nH]cc3NC(=O)c3c(Cl)cc(Cl)cc3Cl)CC2)c1` [FMF-04-158-1, N-(1-(3-acrylamidobenzyl)piperidin-4-yl)-4-(2,4,6-trichlorobenzamido)-1H-pyrazole-3-carboxamide], the half-inhibitory concentration (IC50) on Cdk14/CycY worked out at 198 nM; in the experiment with HCT116 cells, 11 nM.
In the same order, the values of `CN(C)C/C=C/C(=O)Nc1cccc(CN2CCC(NC(=O)c3n[nH]cc3NC(=O)c3c(F)cccc3F)CC2)c1` [FMF-04-160-2, (E)-4-(2,6-difluorobenzamido)-N-(1-(3-(4-(dimethylamino)but-2-enamido)benzyl)piperidin-4-yl)-1H-pyrazole-3-carboxamide] are 223 nM and 437 nM.
In the same order, the values of `C=CC(=O)Nc1cccc(S(=O)(=O)N2CCC(NC(=O)c3n[nH]c(C)c3NC(=O)c3c(Cl)cccc3Cl)CC2)c1` [FMF-04-181-1, N-(1-((3-acrylamidophenyl)sulfonyl)piperidin-4-yl)-4-(2,6-dichlorobenzamido)-5-methyl-1H-pyrazole-3-carboxamide] are > 1000 nM and > 10000 nM.
The corresponding values for `CN(C)C/C=C/C(=O)Nc1cccc(C(=O)Nc2cccc(NC(=O)c3n[nH]cc3NC(=O)c3c(Cl)cccc3Cl)c2)c1` [FMF-04-196-1, (E)-4-(2,6-dichlorobenzamido)-N-(3-(3-(4-(dimethylamino)but-2-enamido)benzamido)phenyl)-1H-pyrazole-3-carboxamide] are 41 nM and 366 nM.
Regarding `C=CC(=O)Nc1cccc(CN2CCC(NC(=O)c3n[nH]cc3NC(=O)c3c(F)cc(F)cc3F)CC2)c1` [FMF-04-200-1, N-(1-(3-acrylamidobenzyl)piperidin-4-yl)-4-(2,4,6-trifluorobenzamido)-1H-pyrazole-3-carboxamide], the 50% inhibitory concentration (IC50) is 31 nM on Cdk14/CycY and 1.9 nM in the experiment on HCT116 cells.
In the same order, the values of `C=CC(=O)Nc1cccc(S(=O)(=O)N2CCC(NC(=O)c3n[nH]cc3NC(=O)c3ccccc3)CC2)c1` [FMF-05-027-1, N-(1-((3-acrylamidophenyl)sulfonyl)piperidin-4-yl)-4-benzamido-1H-pyrazole-3-carboxamide] are 315 nM and 382 nM.
As to `COc1cc(OC)c(C(=O)Nc2c[nH]nc2C(=O)NC2CCN(S(=O)(=O)c3cccc(NC(=O)/C=C/CN(C)C)c3)CC2)c(OC)c1` [FMF-05-028-2, (E)-N-(1-((3-(4-(dimethylamino)but-2-enamido)phenyl)sulfonyl)piperidin-4-yl)-4-(2,4,6-trimethoxybenzamido)-1H-pyrazole-3-carboxamide], the IC50 on Cdk14/CycY was 221 nM; in the experiment on HCT116 cells, > 10000 nM.
The corresponding values for `C=CC(=O)Nc1cccc(S(=O)(=O)N2CC[C@@H](NC(=O)c3n[nH]cc3NC(=O)c3c(Cl)cccc3Cl)C2)c1` [FMF-05-065-1, (R)-N-(1-((3-acrylamidophenyl)sulfonyl)pyrrolidin-3-yl)-4-(2,6-dichlorobenzamido)-1H-pyrazole-3-carboxamide] are > 10000 nM and 467 nM.
